According to patent US4783443A, “Amino acyl cephalosporin derivatives” (The University of Chicago, priority 1986, dated 1988):
≈ marks a conversion by molar mass, not a printed value. Counter-ions that a name gives are not always drawn.

Legend:
[1] = test system: Escherichia coli JSR-O pBR322; experiment: Minimum inhibitory concentration (MIC); type: cell-based; details: read-out: Minimum Inhibitory Concentration
Excerpt: (§1) The antibacterial effects of compounds of the invention have been assessed by determination of the minimum inhibitory concentration (M.I.C.) value against a variety of Gram-negative and -positive bacteria. The microbial susceptibility data for four compounds, together with those for the antibacterial dipeptide beta-Cl-LAla-beta-Cl-LAla, are given in Table I.
(§2) in uM to facilitate a meaningful comparison of the approximate MICs among
(§3) the tested compounds; an appreciation of the MIC values in ug/mL can be
(§4) obtained by multiplying each value (μM) by 0.55
^(i) Contains the plasmid gene encoding the TEM betalactamase.

[2] = test system: Gram-negative and -positive bacteria; experiment: Antibacterial activity, general trends of the MIC panel of Table I; type: cell-based; details: E. cloacae, all of the susceptible E. coli strains, H. influenzae 487, all of the S. aureus strains
Excerpt: as §1

[3] = test system: Escherichia coli JSR-O Cl-Pep^R; experiment: Minimum inhibitory concentration (MIC); type: cell-based; details: Escherichia coli, read-out: Minimum Inhibitory Concentration
Excerpt: as §1, §2, §3, §4
^(g) This ia an E. coli JSRO strain selected for resistance to the
A comparison of the data for E. coli strains JSR-O and JSR-O Cl-Pep^R is of special interest. E. coli Cl-Pep^R is an E. coli JSR-O mutant which was selected for resistance to the dipeptide (f). […] Note that the MIC values for (d) and (e) against E. coli Cl-Pep^R (100 and 50 μM, respectively) are quite similar.

Serratia marcescens = experiment: Minimum inhibitory concentration (MIC); type: cell-based; details: Gram-negative
Excerpt: as §1, §2, §3, §4

[4] = test system: Hemophilus influenzae 236; experiment: Minimum inhibitory concentration (MIC); type: cell-based; details: Haemophilus influenzae
Excerpt: as §1, §2, §3, §4

[5] = test system: Staphylococcus aureus PSL-15 Pen^R; experiment: Minimum inhibitory concentration (MIC); type: cell-based; details: possesses a betalactamase
Excerpt: as §1, §2, §3, §4

[6] = test system: Staphylococcus aureus PSL-14 Pen^R; experiment: Minimum inhibitory concentration (MIC); type: cell-based; details: possesses a betalactamase
Excerpt: as §1, §2, §3, §4

Escherichia coli JSR-O = experiment: Minimum inhibitory concentration (MIC); type: cell-based; details: Escherichia coli JSR-O; parental strain; read-out: Minimum Inhibitory Concentration
Excerpt: as §1, §2, §3, §4

Escherichia coli DB4548 = experiment: Minimum inhibitory concentration (MIC); type: cell-based
Excerpt: as §1, §2, §3, §4

Salmonella typhimurium = experiment: Minimum inhibitory concentration (MIC); type: cell-based; details: Salmonella enterica, Gram-negative
Excerpt: as §1, §2, §3, §4

Streptococcus faecalis = experiment: Minimum inhibitory concentration (MIC); type: cell-based; details: Enterococcus faecalis; Streptococcus faecalis; Gram positive; read-out: Minimum Inhibitory Concentration
Excerpt: as §1, §2, §3, §4

[7] = test system: Hemophilus influenzae 238; experiment: Minimum inhibitory concentration (MIC); type: cell-based; details: Haemophilus influenzae
Excerpt: as §1, §2, §3, §4

Shigella flexneri = experiment: Minimum inhibitory concentration (MIC); type: cell-based; details: Gram-negative
Excerpt: as §1, §2, §3, §4

Escherichia coli CR = experiment: Minimum inhibitory concentration (MIC); type: cell-based; details: Escherichia coli CR; read-out: Minimum Inhibitory Concentration
Excerpt: as §1, §2, §3, §4

Morganella morganii = experiment: Minimum inhibitory concentration (MIC); type: cell-based; details: Gram-negative
Excerpt: as §1, §2, §3, §4

Streptococcus agalactiae = experiment: Minimum inhibitory concentration (MIC); type: cell-based; details: Gram positive
Excerpt: as §1, §2, §3, §4

[8] = test system: Staphylococcus aureus H-2690-8^R; experiment: Minimum inhibitory concentration (MIC); type: cell-based; details: possesses a betalactamase
Excerpt: as §1, §2, §3, §4

Enterobacter cloacae = experiment: Minimum inhibitory concentration (MIC); type: cell-based; details: Gram-negative, read-out: Minimum Inhibitory Concentration
Excerpt: as §1, §2, §3, §4

[9] = test system: Staphylococcus aureus T-4624-8 Pen^R; experiment: Minimum inhibitory concentration (MIC); type: cell-based; details: possesses a betalactamase
Excerpt: as §1, §2, §3, §4

[10] = test system: Staphylococcus aureus PSL-16 Pen^R; experiment: Minimum inhibitory concentration (MIC); type: cell-based; details: possesses a betalactamase
Excerpt: as §1, §2, §3, §4

Enterobacter areogenes = experiment: Minimum inhibitory concentration (MIC); type: cell-based; details: Gram-negative
Excerpt: as §1, §2, §3, §4

[11] = test system: Hemophilus influenzae 487; experiment: Minimum inhibitory concentration (MIC); type: cell-based; details: Haemophilus influenzae, possesses a betalactamase
Excerpt: as §1, §2, §3, §4

[12] = test system: Salmonella typhimurium LT 2; experiment: Minimum inhibitory concentration (MIC); type: cell-based; details: Salmonella enterica, Gram-negative
Excerpt: as §1, §2, §3, §4

Klebsiella pneumoniae = experiment: Minimum inhibitory concentration (MIC); type: cell-based; details: Gram-negative
Excerpt: as §1, §2, §3, §4

[13] = test system: Staphylococcus aureus PSL-13 Pen^R; experiment: Minimum inhibitory concentration (MIC); type: cell-based; details: possesses a betalactamase
Excerpt: as §1, §2, §3, §4

Psuedomonas aeruginosa = experiment: Minimum inhibitory concentration (MIC); type: cell-based; details: Gram-negative
Excerpt: as §1, §2, §3, §4

Escherichia coli Ceph^R = experiment: Minimum inhibitory concentration (MIC); type: cell-based; details: Escherichia coli, read-out: Minimum Inhibitory Concentration
Excerpt: as §1, §2, §3, §4
(§5) ^(j) Resistant to cephalothin (MIC >200 uM);

Corynebacterium JKR-2285 = experiment: Minimum inhibitory concentration (MIC); type: cell-based; details: JKR2285; Corynebacterium JKR-2285; resistant to cephalothin; read-out: Minimum Inhibitory Concentration
Excerpt: as §1, §2, §3, §4, §5

Corynebacterium JKM-4754 = experiment: Minimum inhibitory concentration (MIC); type: cell-based; details: JKM4754; Corynebacterium JKM-4754; resistant to cephalothin; read-out: Minimum Inhibitory Concentration
Excerpt: as §1, §2, §3, §4, §5

[14] = test system: Staphylococcus epidermidis 1239(P^R M^R); experiment: Minimum inhibitory concentration (MIC); type: cell-based
Excerpt: as §1, §2, §3, §4
(§6) ^(k) P and M refer to penicillin and methicillin, respectively.

[15] = test system: Staphylococcus epidermidis MO1554(P^S M^S); experiment: Minimum inhibitory concentration (MIC); type: cell-based; details: Staphylococcus epidermidis MO1554 (penicillin- and methicillin-sensitive, P^S M^S)
Excerpt: as §1, §2, §3, §4, §6

[16] = test system: Staphylococcus epidermidis (P^R M^R); experiment: Minimum inhibitory concentration (MIC); type: cell-based; details: no strain number
Excerpt: as §1, §2, §3, §4, §6

[17] = target: E. coli TEM beta-lactamase (Escherichia coli, UniProt P62593); experiment: Kinetics of enzymatic turnover by E. coli TEM beta-lactamase; type: biochemical
Method: Escherichi coli TEM beta-lactamase was purchased from Applied Microbiology and Research, Porton Down, U.K. L-Alanyl-L-alanine was purchase from Sigma; N-BOC-LAla-LAla and N-BOC-beta-Cl-LAla-beta-Cl-LAla were prepared as described previously. Cheung et al supra. All other reagents were of the best grade commercially available.
Kinetic Constants for the Reactions of E. coli TEM beta-Lactamase with Cephalothin and the Cephalosporin Peptide Esters 7 and 17.

E. coli TEM beta-lactamase, sequence (P62593 24-286 limits assumed): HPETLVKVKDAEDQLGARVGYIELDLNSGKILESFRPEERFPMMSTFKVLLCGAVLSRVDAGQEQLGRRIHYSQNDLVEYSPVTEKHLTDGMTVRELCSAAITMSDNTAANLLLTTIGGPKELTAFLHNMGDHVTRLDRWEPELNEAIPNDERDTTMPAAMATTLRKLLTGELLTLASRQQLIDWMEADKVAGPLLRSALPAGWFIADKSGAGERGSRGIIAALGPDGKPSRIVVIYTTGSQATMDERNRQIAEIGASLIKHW

C[C@H](N)C(=O)OCC1=C(C(=O)O)N2C(=O)[C@@H](NC(=O)Cc3cccs3)[C@H]2SC1 [(b), 7-beta-(2-thienylacetamido)-3-(L-alanyloxymethyl)-3-cephem-4-carboxylic acid]
MIC [1]: 50 µM (≈ 21.3 µg/mL)
sensitivity observed [2]: no activity was seen
MIC [3]: > 200 µM
MIC (Serratia marcescens): > 200 µM
MIC [4]: 50 µM (≈ 21.3 µg/mL)
MIC [5]: 100 µM (≈ 42.5 µg/mL)
MIC [6]: > 200 µM
MIC (Escherichia coli JSR-O): 100 µM (≈ 42.5 µg/mL)
MIC (Escherichia coli DB4548): 50 µM (≈ 21.3 µg/mL)
MIC (Salmonella typhimurium): > 200 µM
MIC (Streptococcus faecalis): > 100 µM
MIC [7]: ≤ 0.78 µM
MIC (Shigella flexneri): 100 µM (≈ 42.5 µg/mL)
MIC (Escherichia coli CR): 100 µM (≈ 42.5 µg/mL)
MIC (Morganella morganii): 100 µM (≈ 42.5 µg/mL)
MIC (Streptococcus agalactiae): ≤ 0.78 µM
MIC [8]: 100 µM (≈ 42.5 µg/mL)
MIC (Enterobacter cloacae): > 200 µM
MIC [9]: 100 µM (≈ 42.5 µg/mL)
MIC [10]: > 200 µM
MIC (Enterobacter areogenes): > 200 µM
MIC [11]: 50 µM (≈ 21.3 µg/mL)
MIC [12]: 50 µM (≈ 21.3 µg/mL)
MIC (Klebsiella pneumoniae): > 200 µM
MIC [13]: 200 µM (≈ 85.1 µg/mL)
MIC (Psuedomonas aeruginosa): > 200 µM
MIC (Escherichia coli Ceph^R): > 200 µM
MIC (Corynebacterium JKR-2285): > 200 µM
MIC (Corynebacterium JKM-4754): > 200 µM
MIC [14]: ≤ 0.78 µM
MIC [15]: ≤ 0.78 µM
MIC [16]: 1.56 µM (≈ 0.664 µg/mL)

N[C@@H](CCl)C(=O)OCC1=C(C(=O)O)N2C(=O)[C@@H](NC(=O)Cc3cccs3)[C@H]2SC1 [(c), 7-beta-(2-thienylacetamido)-3(beta-chloro-L-alanyloxymethyl)-3-cephem-4-carboxylic acid]
sensitivity observed [2]: sensitivity was observed
MIC [3]: > 200 µM
MIC (Serratia marcescens): > 200 µM
MIC [4]: 25 µM (≈ 11.5 µg/mL)
MIC [5]: 12.5 µM (≈ 5.75 µg/mL)
MIC [6]: 25 µM (≈ 11.5 µg/mL)
MIC (Escherichia coli JSR-O): 100 µM (≈ 46 µg/mL)
MIC (Escherichia coli DB4548): 50 µM (≈ 23 µg/mL)
MIC (Salmonella typhimurium): 100 µM (≈ 46 µg/mL)
MIC (Streptococcus faecalis): 200 µM (≈ 92 µg/mL)
MIC [7]: ≤ 0.78 µM
MIC (Shigella flexneri): 100 µM (≈ 46 µg/mL)
MIC (Escherichia coli CR): 50 µM (≈ 23 µg/mL)
MIC (Morganella morganii): 100 µM (≈ 46 µg/mL)
MIC (Streptococcus agalactiae): ≤ 0.78 µM
MIC [8]: 6.25 µM (≈ 2.87 µg/mL)
MIC (Enterobacter cloacae): 100 µM (≈ 46 µg/mL)
MIC [9]: 6.25 µM (≈ 2.87 µg/mL)
MIC [10]: 255 µM (≈ 117 µg/mL)
MIC (Enterobacter areogenes): > 200 µM
MIC [11]: 25 µM (≈ 11.5 µg/mL)
MIC [12]: 25 µM (≈ 11.5 µg/mL)
MIC (Klebsiella pneumoniae): > 200 µM
MIC [13]: 25 µM (≈ 11.5 µg/mL)
MIC (Psuedomonas aeruginosa): > 200 µM
MIC (Escherichia coli Ceph^R): > 200 µM
MIC (Corynebacterium JKR-2285): > 200 µM
MIC (Corynebacterium JKM-4754): > 200 µM
MIC [14]: ≤ 0.78 µM
MIC [15]: ≤ 0.78 µM
MIC [16]: ≤ 0.78 µM

C[C@H](N)C(=O)N[C@@H](C)C(=O)OCC1=C(C(=O)O)N2C(=O)[C@@H](NC(=O)Cc3cccs3)[C@H]2SC1 [(d), Sodium 7-beta-(2-thienylacetamido)-3-(L-alanyl-L-alanyloxymethyl)-3-cephem-4-carboxylate, toluenesulfonic acid salt]
MIC [1]: > 200 µM
sensitivity observed [2]: no activity was seen
MIC [3]: 100 µM
Vmax compared with cephalothin [17]: substantially greater than that obtained for cephalothin
substrate for the lactamase [17]: found to be substrates for the E. coli TEM beta-lactamase
binding to the lactamase (KM approximating KS) ([17]; effect of the C10-dipeptidyl substituent): do not compromise the binding of the cephalosporin nucleus to the lactamase
MIC (Serratia marcescens): > 200 µM
MIC [4]: 50 µM
MIC [5]: > 200 µM
MIC [6]: > 200 µM
MIC (Escherichia coli JSR-O): 200 µM
MIC (Escherichia coli DB4548): 50 µM
MIC (Salmonella typhimurium): 100 µM
MIC (Streptococcus faecalis): 50 µM
MIC [7]: ≤ 0.78 µM
MIC (Shigella flexneri): 100 µM
MIC (Escherichia coli CR): 200 µM
MIC (Morganella morganii): 100 µM
MIC (Streptococcus agalactiae): ≤ 0.78 µM
MIC [8]: 25 µM
MIC (Enterobacter cloacae): 200 µM
MIC [9]: 25 µM
MIC [10]: 200 µM
MIC (Enterobacter areogenes): > 200 µM
MIC [11]: 12.5 µM
MIC [12]: 25 µM
MIC (Klebsiella pneumoniae): > 200 µM
MIC [13]: > 200 µM
MIC (Psuedomonas aeruginosa): > 200 µM
MIC (Escherichia coli Ceph^R): > 200 µM
MIC (Corynebacterium JKR-2285): > 200 µM
MIC (Corynebacterium JKM-4754): > 200 µM
MIC [14]: ≤ 0.78 µM
MIC [15]: ≤ 0.78 µM
MIC [16]: ≤ 0.78 µM
